Source: PubChem BioAssay AID1963838 (Molecular Pharmacology Branch, DTP, NCI, 2024)

Tested on: 855422-203-R-J1-PDC complex spheroid viability
Test: Anticancer human tumor 855422-203-R-J1-PDC patient-derived bladder carcinoma cell line growth inhibition [POLQ]
Settings: for IC50: curve of first compound; for viability, T/C: stronger effect = lower value
Procedure: Multicellular complex tumor spheroid response to Polymerase (POL) inhibitors (novobiocin, ART-558, RP6685) in combination with a variety of drugs and investigational agents in selected tumor cell lines
The POL inhibitors (novobiocin, ART-558, and RP6685) were evaluated both individually and in combination with standard of care and investigational anticancer small molecules within a complex spheroid model of solid tumors. . Complex spheroids include a stromal component modeled by human endothelial cells (HUVEC) and fibroblasts modeled by human mesenchymal stem cells (MSCs). The concentration ranges selected for each drug and investigational agent were based upon clinically achievable concentrations if the clinical Cmax of the agent was known.
Compounds. The drugs and investigational agents: novobiocin (NSC847541), ART-558 (NSC835418), RP-6685 (NSC848927), peposertib (NSC802822), ceralasertib (NSC780249), elimusertib (NSC800525), camonsertib (NSC841442), AZD-1390 (NSC803789), olaparib (NSC753686), talazoparib (NSC767125), rucaparib (NSC756644), sotorasib (NSC818433), MRTX-1133 (NSC836407), SN-38 (NSC673596), topotecan (NSC609699), epotoside (NSC141540), doxorubicin (NSC123127), gemcitabine (NSC613327), 5-fluorouracil (NSC19893), paclitaxel (NSC125973), vemurafenib (NSC761431), MSA-2 (NSC828583), SN-011 (NSC837082), adavosertib (NSC754352), prexasertib (NSC758257), carboplatin (NSC241240) and oxaliplatin (NSC266046), were obtained from the National Cancer Institute (NCI) Developmental Therapeutics Program Chemical Repository (21). The FDA-approved anticancer drug set is available from the Developmental Therapeutics Program at https://dtp.cancer.gov/organization/dscb/obtaining/. […] The stock solutions were prepared in dimethyl sulfoxide (DMSO, Sigma-Aldrich, St. Louis, MO, cat. D2650), except for the platinum compounds which were prepared in saline (Quality Biological, Gaithersburg, MD, cat. 114-055-101), at 800-fold the tested concentration and stored at -70 degrees C prior to their use. All drugs and investigational agents were tested over a range starting from a high concentration at or near the clinical Cmax and decreasing in half-log increments. If the clinical Cmax for an agent had not been determined, the highest concentration tested was 10 microM, except for SN-38, which was tested at a high concentration of 1 microM.
Cell Culture. All cells were maintained in an incubator at 37 degrees C and 5% CO2 with 95% humidity. The PDC lines were cultured according to standard operating procedures established by the NCI PDMR (https://pdmr.cancer.gov). Table 3 of the manuscript, lists the cell lines along with the number of the three cell types plated to form the mct-spheroids and media for tumor cell growth. After thawing, all PDC lines, except 997537-175-T-J1-PDC and 415267-285-R-J2-PDC, were cultured in Matrigel-coated flasks prepared with a working solution of 1X Ham's F-12 nutrient mix, without supplementation (Thermo Fisher Scientific, cat. 11765054), 100 U/mL penicillin-streptomycin (Thermo Fisher Scientific, cat. 15140122), and 2.5% Matrigel (Corning Inc., Corning, NY, cat. 354248) for the first three passages. The two PDC lines 997537-175-T-J1-PDC and 415267-285-R-J2-PDC were cultured on uncoated flasks. The 857933-349-R-J2-PDC line was cultured in 6C/Colon 1B media containing advanced DMEM/F-12 (Thermo Fisher Scientific, cat. 12634028), 10 mM HEPES (Thermo Fisher Scientific, cat. 15630080), 1X GlutaMAX supplement (Thermo Fisher Scientific, cat. 35050061), 0.1 mg/mL primocin (InvivoGen, San Diego, CA, cat. ant-pm-2), 10% defined fetal bovine serum, heat inactivated (HyClone Laboratories Inc., Logan, UT, cat. SH30070.03HI), 50% L-WRN conditioned media (ATCC, cat. CRL-3276), 1.25 mM N-Acetyl-L-cysteine (Sigma-Aldrich, cat. A9165), 10 mM nicotinamide (Sigma-Aldrich, cat. N0636), 1X B-27 supplement (Thermo Fisher Scientific, cat. 17504044), 1X N-2 supplement (Thermo Fisher Scientific, cat. […]

[1] = second compound 0.0316 µM, first compound 0.0316 µM
[2] = second compound 0.0316 µM, first compound 0.1 µM
[3] = second compound 0.0316 µM, first compound 0.316 µM
[4] = second compound 0.0316 µM, first compound 1 µM
[5] = second compound 0.0316 µM, first compound 3.16 µM
[6] = second compound 0.0316 µM, first compound 10 µM
[7] = second compound 0.1 µM, first compound 0.0316 µM
[8] = second compound 0.1 µM, first compound 0.1 µM
[9] = second compound 0.1 µM, first compound 0.316 µM
[10] = second compound 0.1 µM, first compound 1 µM
[11] = second compound 0.1 µM, first compound 3.16 µM
[12] = second compound 0.1 µM, first compound 10 µM
[13] = second compound 0.316 µM, first compound 0.0316 µM
[14] = second compound 0.316 µM, first compound 0.1 µM
[15] = second compound 0.316 µM, first compound 0.316 µM
[16] = second compound 0.316 µM, first compound 1 µM
[17] = second compound 0.316 µM, first compound 3.16 µM
[18] = second compound 0.316 µM, first compound 10 µM
[19] = second compound 1 µM, first compound 0.0316 µM
[20] = second compound 1 µM, first compound 0.1 µM
[21] = second compound 1 µM, first compound 0.316 µM
[22] = second compound 1 µM, first compound 1 µM
[23] = second compound 1 µM, first compound 3.16 µM
[24] = second compound 1 µM, first compound 10 µM
[25] = second compound 3.16 µM, first compound 0.0316 µM
[26] = second compound 3.16 µM, first compound 0.1 µM
[27] = second compound 3.16 µM, first compound 0.316 µM
[28] = second compound 3.16 µM, first compound 1 µM
[29] = second compound 3.16 µM, first compound 3.16 µM
[30] = second compound 3.16 µM, first compound 10 µM
[31] = second compound 10 µM, first compound 0.0316 µM
[32] = second compound 10 µM, first compound 0.1 µM
[33] = second compound 10 µM, first compound 0.316 µM
[34] = second compound 10 µM, first compound 1 µM
[35] = second compound 10 µM, first compound 3.16 µM
[36] = second compound 10 µM, first compound 10 µM
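Note: spheroids exposed to compounds for seven days before readout.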

COc1cc2cc(C(=O)CCC(=O)O)sc2cc1OC + Nc1ccc(C#CCN(C(=O)Cc2ncc(C(F)(F)F)cc2C(F)(F)F)c2ccc(F)cc2)nn1
IC50 (second compound 0.0316 µM): > 10 µM
IC50 (second compound 0.1 µM): > 10 µM
IC50 (second compound 0.316 µM): > 10 µM
IC50 (second compound 1 µM): > 10 µM
IC50 (second compound 3.16 µM): > 10 µM
IC50 (second compound 10 µM): > 10 µM
viability, T/C [1]: 97.8%
viability, T/C [2]: 121%
viability, T/C [3]: 97.6%
viability, T/C [4]: 86.3%
viability, T/C [5]: 109%
viability, T/C [6]: 94.5%
viability, T/C [7]: 99.8%
viability, T/C [8]: 101%
viability, T/C [9]: 91%
viability, T/C [10]: 82%
viability, T/C [11]: 138%
viability, T/C [12]: 109%
viability, T/C [13]: 104%
viability, T/C [14]: 105%
viability, T/C [15]: 90%
viability, T/C [16]: 94.1%
viability, T/C [17]: 107%
viability, T/C [18]: 92%
viability, T/C [19]: 86.8%
viability, T/C [20]: 104%
viability, T/C [21]: 102%
viability, T/C [22]: 98.7%
viability, T/C [23]: 97.3%
viability, T/C [24]: 90.4%
viability, T/C [25]: 92.4%
viability, T/C [26]: 111%
viability, T/C [27]: 94.9%
viability, T/C [28]: 97.5%
viability, T/C [29]: 97.1%
viability, T/C [30]: 88.6%
viability, T/C [31]: 92.8%
viability, T/C [32]: 92%
viability, T/C [33]: 87.1%
viability, T/C [34]: 102%
viability, T/C [35]: 96%
viability, T/C [36]: 88.5%

O=C(Nc1ccc(O)c(NS(=O)(=O)c2ccc(F)cc2)c1)c1ccc(-c2ccccc2)cc1 + Nc1ccc(C#CCN(C(=O)Cc2ncc(C(F)(F)F)cc2C(F)(F)F)c2ccc(F)cc2)nn1
IC50 (second compound 0.0316 µM): > 10 µM
IC50 (second compound 0.1 µM): > 10 µM
IC50 (second compound 0.316 µM): > 10 µM
IC50 (second compound 1 µM): > 10 µM
IC50 (second compound 3.16 µM): > 10 µM
IC50 (second compound 10 µM): > 10 µM
viability, T/C [1]: 93.4%
viability, T/C [2]: 119%
viability, T/C [3]: 108%
viability, T/C [4]: 88.1%
viability, T/C [5]: 105%
viability, T/C [6]: 77.5%
viability, T/C [7]: 95.5%
viability, T/C [8]: 105%
viability, T/C [9]: 94.5%
viability, T/C [10]: 103%
viability, T/C [11]: 117%
viability, T/C [12]: 63.8%
viability, T/C [13]: 91.3%
viability, T/C [14]: 114%
viability, T/C [15]: 102%
viability, T/C [16]: 99.2%
viability, T/C [17]: 106%
viability, T/C [18]: 77.4%
viability, T/C [19]: 92.8%
viability, T/C [20]: 92.8%
viability, T/C [21]: 95.5%
viability, T/C [22]: 95.2%
viability, T/C [23]: 112%
viability, T/C [24]: 73.6%
viability, T/C [25]: 93.6%
viability, T/C [26]: 94.2%
viability, T/C [27]: 91.3%
viability, T/C [28]: 96.3%
viability, T/C [29]: 93.7%
viability, T/C [30]: 62.2%
viability, T/C [31]: 92%
viability, T/C [32]: 90.1%
viability, T/C [33]: 89.2%
viability, T/C [34]: 88.7%
viability, T/C [35]: 95.1%
viability, T/C [36]: 51.5%
